Data set [1] concerns the target T1, TRAF2 and NCK-interacting protein kinase (Homo sapiens, UniProt Q9UKE5). Put plainly: Inhibition of TNIK (unknown origin) by ADP glo luminescent assay. Background: ADP-Glo first removes unused ATP, then detects ADP through luciferase.
Target sequence in this assay (Q9UKE5 whole entry): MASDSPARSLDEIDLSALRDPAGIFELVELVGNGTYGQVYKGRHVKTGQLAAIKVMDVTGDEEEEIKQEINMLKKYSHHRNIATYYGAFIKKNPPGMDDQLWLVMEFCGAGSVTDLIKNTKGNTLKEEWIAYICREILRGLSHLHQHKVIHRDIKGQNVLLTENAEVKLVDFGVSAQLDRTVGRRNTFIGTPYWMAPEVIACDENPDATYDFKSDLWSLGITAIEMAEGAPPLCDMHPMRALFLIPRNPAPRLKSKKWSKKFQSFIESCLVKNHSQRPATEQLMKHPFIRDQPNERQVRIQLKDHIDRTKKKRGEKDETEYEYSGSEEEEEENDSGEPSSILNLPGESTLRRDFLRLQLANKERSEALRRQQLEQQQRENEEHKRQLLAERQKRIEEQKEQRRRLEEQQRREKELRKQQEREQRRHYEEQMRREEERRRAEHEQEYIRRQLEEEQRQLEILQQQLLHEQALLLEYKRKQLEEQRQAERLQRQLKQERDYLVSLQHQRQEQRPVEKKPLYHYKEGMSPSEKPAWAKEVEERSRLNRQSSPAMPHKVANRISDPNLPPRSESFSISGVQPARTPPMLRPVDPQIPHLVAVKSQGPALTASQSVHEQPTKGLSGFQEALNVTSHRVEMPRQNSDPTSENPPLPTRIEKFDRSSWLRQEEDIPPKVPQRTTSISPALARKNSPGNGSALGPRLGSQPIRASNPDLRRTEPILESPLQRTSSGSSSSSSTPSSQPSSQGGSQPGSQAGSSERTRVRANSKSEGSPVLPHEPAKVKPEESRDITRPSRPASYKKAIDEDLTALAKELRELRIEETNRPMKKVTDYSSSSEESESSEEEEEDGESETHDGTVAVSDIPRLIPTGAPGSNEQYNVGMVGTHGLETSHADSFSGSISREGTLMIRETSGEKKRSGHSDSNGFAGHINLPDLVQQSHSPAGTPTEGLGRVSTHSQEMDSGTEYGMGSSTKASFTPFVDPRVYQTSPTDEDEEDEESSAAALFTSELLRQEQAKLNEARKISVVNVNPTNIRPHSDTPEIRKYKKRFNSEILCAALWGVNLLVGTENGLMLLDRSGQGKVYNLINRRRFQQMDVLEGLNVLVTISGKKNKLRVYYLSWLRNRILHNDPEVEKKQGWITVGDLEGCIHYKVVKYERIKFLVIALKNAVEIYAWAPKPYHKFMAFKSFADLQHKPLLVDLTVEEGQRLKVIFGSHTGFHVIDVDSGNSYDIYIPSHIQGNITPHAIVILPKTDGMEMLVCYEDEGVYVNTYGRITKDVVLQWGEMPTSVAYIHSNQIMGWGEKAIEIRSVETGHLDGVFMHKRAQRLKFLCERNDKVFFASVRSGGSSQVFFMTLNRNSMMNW
In data set [2] the target is T1, TRAF2 and NCK-interacting protein kinase. Put plainly: Inhibition of TNIK-mediated TCF4/[…] transcription in human HCT116 cells by beta-lactamase reporter gene assay. The class given is cell-based, HCT-116.
Target sequence in this assay (Q9UKE5 whole entry): as above
For the next data set, the system named is DLD-1. Put plainly: Cytotoxicity against wnt-activated human DLD1 cells assessed as cell viability. The class given is functional, cell-based.
The test system of a further data set is HCT-116. Put plainly: Cytotoxicity against wnt-activated human HCT116 cells assessed as cell viability. The class given is functional, cell-based.
Data set [3] concerns the target T1, TRAF2 and NCK-interacting protein kinase. Put plainly: Ratio of IC50 for TNIK-mediated TCF4/[…] transcription in human HCT116 cells to IC50 for TNIK (unknown origin). The class given is cell-based. The conditions noted are these: HCT-116.
Target sequence in this assay (Q9UKE5 whole entry, looked up): as the sequence (Q9UKE5 whole entry) above
Another data set deals with HEK293. Put plainly: Cytotoxicity against wnt-inactivated human HEK293 cells assessed as cell viability. The class given is functional, cell-based.
A further data set relates to HeLa. The experiment in a line: Cytotoxicity against wnt-inactivated human HeLa cells assessed as cell viability. The class given is functional, cell-based.
In data set [4] the target is Voltage-gated inwardly rectifying potassium channel KCNH2 (Homo sapiens, UniProt Q12809). Put plainly: Inhibition of human ERG by patch clamp assay.
Sequence of Voltage-gated inwardly rectifying potassium channel KCNH2 (Q12809 whole entry): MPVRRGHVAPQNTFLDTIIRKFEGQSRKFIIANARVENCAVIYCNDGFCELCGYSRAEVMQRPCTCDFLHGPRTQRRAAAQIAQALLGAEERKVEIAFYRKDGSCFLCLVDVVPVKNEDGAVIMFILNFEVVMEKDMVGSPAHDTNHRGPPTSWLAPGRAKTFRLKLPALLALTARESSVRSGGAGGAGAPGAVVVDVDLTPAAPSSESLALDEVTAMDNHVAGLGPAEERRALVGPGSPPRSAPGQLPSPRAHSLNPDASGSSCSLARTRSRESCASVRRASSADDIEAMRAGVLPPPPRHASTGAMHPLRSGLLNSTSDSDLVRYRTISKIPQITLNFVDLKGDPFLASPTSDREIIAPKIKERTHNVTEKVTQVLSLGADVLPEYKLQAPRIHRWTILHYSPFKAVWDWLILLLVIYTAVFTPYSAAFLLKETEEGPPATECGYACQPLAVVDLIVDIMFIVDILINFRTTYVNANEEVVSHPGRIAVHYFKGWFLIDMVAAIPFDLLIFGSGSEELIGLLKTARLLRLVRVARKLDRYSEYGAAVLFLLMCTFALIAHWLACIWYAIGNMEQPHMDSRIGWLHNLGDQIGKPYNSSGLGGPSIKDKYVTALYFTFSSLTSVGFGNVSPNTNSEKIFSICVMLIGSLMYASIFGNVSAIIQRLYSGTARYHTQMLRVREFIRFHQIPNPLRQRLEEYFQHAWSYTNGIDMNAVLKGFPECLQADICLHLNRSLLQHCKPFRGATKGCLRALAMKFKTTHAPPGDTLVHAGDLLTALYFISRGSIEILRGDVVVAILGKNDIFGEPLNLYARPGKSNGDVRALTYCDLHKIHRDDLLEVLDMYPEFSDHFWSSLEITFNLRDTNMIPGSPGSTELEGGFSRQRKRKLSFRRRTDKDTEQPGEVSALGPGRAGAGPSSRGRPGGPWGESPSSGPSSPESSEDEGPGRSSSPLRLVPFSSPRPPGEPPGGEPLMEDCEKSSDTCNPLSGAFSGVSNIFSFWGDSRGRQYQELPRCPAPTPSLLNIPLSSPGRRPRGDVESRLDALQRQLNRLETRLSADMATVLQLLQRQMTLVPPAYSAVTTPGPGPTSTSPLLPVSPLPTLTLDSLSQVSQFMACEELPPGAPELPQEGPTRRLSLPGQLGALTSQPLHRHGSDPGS
Data set [5] has as its target Inhibitor of nuclear factor kappa-B kinase subunit epsilon (Homo sapiens) (UniProt Q14164). The experiment in a line: Inhibition of IKKepsilon (unknown origin) at 1 uM.
Data set [6] in a line: Apparent permeability across basolateral to apical side in human Caco2 cells. It counts as ADME, cell-based. To be noted: Caco-2. A general note: Caco-2 cells form a polarised layer with tight junctions and transporters.
In data set [7] the target is Mitogen-activated protein kinase kinase kinase kinase 4 (Homo sapiens) (UniProt O95819). The conditions noted are these: 1 uM.
Data set [8] concerns the target Macrophage colony-stimulating factor 1 receptor (Homo sapiens) (UniProt P07333). Put plainly: Inhibition of FMS (unknown origin) at 1 uM.
The target of data set [9] is Receptor-type tyrosine-protein kinase FLT3 (Homo sapiens) (UniProt P36888). Put plainly: Inhibition of FLT3 (unknown origin) at 1 uM.
Data set [10] is described as follows: Apparent permeability across apical to basolateral side in human Caco2 cells. It counts as ADME, cell-based. To be noted: Caco-2.
Data set [11] deals with T1, TRAF2 and NCK-interacting protein kinase. To be noted: 1 uM.
Target sequence in this assay (Q9UKE5 whole entry, looked up): as the sequence (Q9UKE5 whole entry) above
The nature of data set [12]: Solubility of the compound in phosphate buffer at pH 7.4. The class given is physicochemical.
Data set [13] has as its target Serine/threonine-protein kinase Chk1 (Homo sapiens) (UniProt O14757). Put plainly: Inhibition of CHK1 (unknown origin) at 1 uM.
Data set [14] deals with CDK6/cyclin D1 (Homo sapiens) (UniProt P24385+Q00534). Put plainly: Inhibition of CDK6/Cyclin D1 (unknown origin) at 1 uM. It counts as protein-complex assay.
For the next data set, the system named is Caco-2. Put plainly: Ratio of apparent permeability across basolateral to apical side over apical to basolateral side in human Caco2 cells. It counts as ADME, cell-based.
Data set [15] deals with T1, TRAF2 and NCK-interacting protein kinase. Put plainly: Competitive binding affinity to TNIK (unknown origin) in presence of ATP.
Target sequence in this assay (Q9UKE5 whole entry): as above
The nature of data set [16]: Inhibition of CBP binding to […] in human SW480 cells by immunoblot analysis. It counts as cell-based. On the technique in general: In western blotting, separated proteins are transferred to a membrane and probed.

Converted amounts (≈) assume the structure as drawn.

Sequence of Macrophage colony-stimulating factor 1 receptor (Homo sapiens) (P07333 whole entry): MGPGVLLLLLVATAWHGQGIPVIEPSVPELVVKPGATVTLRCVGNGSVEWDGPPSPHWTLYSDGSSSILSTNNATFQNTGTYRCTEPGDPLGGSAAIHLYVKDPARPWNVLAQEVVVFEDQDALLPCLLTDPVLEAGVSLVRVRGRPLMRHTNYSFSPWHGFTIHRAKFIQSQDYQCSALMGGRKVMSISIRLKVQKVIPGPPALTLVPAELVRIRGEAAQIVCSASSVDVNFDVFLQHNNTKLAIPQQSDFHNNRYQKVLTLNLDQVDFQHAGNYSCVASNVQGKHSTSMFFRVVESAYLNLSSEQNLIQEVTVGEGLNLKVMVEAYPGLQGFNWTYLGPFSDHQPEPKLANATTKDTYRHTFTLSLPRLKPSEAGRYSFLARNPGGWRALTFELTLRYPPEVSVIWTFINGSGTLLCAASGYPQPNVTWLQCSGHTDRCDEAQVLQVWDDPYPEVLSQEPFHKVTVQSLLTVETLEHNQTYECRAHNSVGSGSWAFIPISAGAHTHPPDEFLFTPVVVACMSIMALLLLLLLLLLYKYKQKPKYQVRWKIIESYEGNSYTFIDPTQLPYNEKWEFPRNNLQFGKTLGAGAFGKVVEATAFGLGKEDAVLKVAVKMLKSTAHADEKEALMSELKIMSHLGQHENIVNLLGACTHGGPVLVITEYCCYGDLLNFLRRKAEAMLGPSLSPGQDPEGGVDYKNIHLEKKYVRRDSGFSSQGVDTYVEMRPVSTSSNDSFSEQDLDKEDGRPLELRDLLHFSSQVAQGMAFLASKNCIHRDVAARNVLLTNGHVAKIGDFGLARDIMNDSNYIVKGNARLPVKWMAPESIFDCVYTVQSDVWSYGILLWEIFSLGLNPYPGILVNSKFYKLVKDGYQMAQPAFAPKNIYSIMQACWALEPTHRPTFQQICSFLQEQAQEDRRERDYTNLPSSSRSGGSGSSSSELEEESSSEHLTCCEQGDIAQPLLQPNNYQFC
Sequence of Serine/threonine-protein kinase Chk1 (Homo sapiens) (O14757 whole entry): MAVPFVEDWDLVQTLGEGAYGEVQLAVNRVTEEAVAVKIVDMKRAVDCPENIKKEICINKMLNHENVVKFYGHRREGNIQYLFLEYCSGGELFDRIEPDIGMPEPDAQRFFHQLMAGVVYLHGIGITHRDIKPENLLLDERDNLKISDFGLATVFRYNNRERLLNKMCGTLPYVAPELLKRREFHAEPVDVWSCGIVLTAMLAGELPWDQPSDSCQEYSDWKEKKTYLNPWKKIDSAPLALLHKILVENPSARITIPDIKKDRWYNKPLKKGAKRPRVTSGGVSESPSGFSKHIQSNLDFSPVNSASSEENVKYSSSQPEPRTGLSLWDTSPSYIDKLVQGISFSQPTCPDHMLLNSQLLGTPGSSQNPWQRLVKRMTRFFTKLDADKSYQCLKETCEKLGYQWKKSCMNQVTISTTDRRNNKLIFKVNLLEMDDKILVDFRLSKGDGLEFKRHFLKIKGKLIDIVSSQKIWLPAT
Sequence of Inhibitor of nuclear factor kappa-B kinase subunit epsilon (Homo sapiens) (Q14164 whole entry): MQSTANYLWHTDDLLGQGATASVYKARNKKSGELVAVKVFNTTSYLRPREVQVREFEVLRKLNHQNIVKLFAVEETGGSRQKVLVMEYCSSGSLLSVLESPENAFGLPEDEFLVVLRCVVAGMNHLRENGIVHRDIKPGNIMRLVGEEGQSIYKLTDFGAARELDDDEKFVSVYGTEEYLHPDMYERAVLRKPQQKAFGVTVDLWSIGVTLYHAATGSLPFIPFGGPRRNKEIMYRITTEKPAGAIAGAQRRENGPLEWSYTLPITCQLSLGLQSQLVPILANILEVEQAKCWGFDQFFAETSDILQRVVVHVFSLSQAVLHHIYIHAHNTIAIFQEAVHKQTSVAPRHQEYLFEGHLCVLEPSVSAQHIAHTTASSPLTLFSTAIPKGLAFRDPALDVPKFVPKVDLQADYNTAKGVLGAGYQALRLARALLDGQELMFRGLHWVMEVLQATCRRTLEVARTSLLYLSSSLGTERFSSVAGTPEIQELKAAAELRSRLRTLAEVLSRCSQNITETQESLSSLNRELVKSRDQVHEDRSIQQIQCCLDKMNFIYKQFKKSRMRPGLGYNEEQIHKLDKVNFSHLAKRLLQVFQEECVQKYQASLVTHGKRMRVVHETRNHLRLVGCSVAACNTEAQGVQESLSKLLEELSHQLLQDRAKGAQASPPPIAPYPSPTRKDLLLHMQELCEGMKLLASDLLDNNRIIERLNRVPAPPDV

As a reminder, the IC50 is the point on the concentration scale where inhibition reaches its midpoint. On to `COc1cc(C#N)cc(-c2ccnc(Nc3ccc(N4CCOCC4)c(OC)c3)c2)c1`, for which, in data set [1], the IC50 turned out to be 0.063 µM.
Consider `COc1ccc(C#N)cc1-c1ccnc(Nc2ccc(N3CCC(N(C)C)CC3)c(F)c2)c1`, for which the IC50 in data set [2] is 3.1 µM; with DLD-1, 0.33 µM; in data set [1], 0.011 µM; in the data set on HCT-116, 0.26 µM; in the data set with HEK293 it was 0.043 µM; in the data set with HeLa, 1.2 µM. Further, in [3], the Ratio IC50 came to 280.
For `COc1ccc(Cl)cc1-c1ccnc(Nc2ccc(N3CCOCC3)c(OC)c2)c1`, the IC50 in [1] worked out at 0.041 µM; in data set [4], 20 µM.
For orientation: inhibition means the share of the control response that was lost under treatment. What is called Papp B→A is the apparent permeability from the basolateral to the apical side of a cell layer. The term Papp A→B denotes the apparent permeability from the apical to the basolateral side of a cell layer. The solubility is the dissolved amount per volume that the medium holds. Higher therefore signals much dissolved substance. Consider `COc1cc(Nc2cc(-c3cccc(C#N)c3)ccn2)ccc1N1CCN(C)CC1`, for which the inhibition in [5] is above 80%; in [7] it was above 95%; in data set [8], 50%; in [9], 50%; in data set [11], above 95%; in data set [13] it was above 50%. In [14], the inhibition is above 50%. Besides, the IC50 worked out at 27 µM in data set [2] and 0.006 µM in data set [1]. Further, in [6], the Papp B→A was 142 nm/s. Besides, in [10], the Papp A→B is 160 nm/s. Moreover, the concentration in solution in [12] (solubility) was 78 µM (≈ 31.2 µg/mL).
Consider `COc1ccc(F)cc1-c1ccnc(Nc2ccc(N3CCOCC3)c(OC)c2)c1`, for which the IC50 in [1] came to 0.118 µM.
In general, Kd refers to the free concentration of one partner at which half of the binding sites on the other are occupied at equilibrium, for simple one-to-one binding. As to `COc1cc(Nc2cc(-c3cccc(CC#N)c3)ccn2)ccc1N1CCN(C)CC1`, in the data set with Caco-2, the Ratio is given as 0.93. Further, the Papp B→A in data set [6] was 191 nm/s. In [1], the IC50 amounted to 0.29 µM. In addition, in [10], the Papp A→B amounted to 205 nm/s. The Kd in data set [15] worked out at 0.22 µM. Besides, in data set [12], the concentration in solution (solubility) was 94 µM (≈ 38.9 µg/mL).
In [1], `COc1cc(Nc2cc(-c3ccc(C#N)cc3)ccn2)ccc1N1CCOCC1` had a half-inhibitory concentration (IC50) above 1 µM.
The same measure, in the same setting: for `COc1ccc(C#N)cc1-c1ccnc(Nc2ccc(N3CCN(C)CC3)c(OC)c2)c1` the value was 0.003 µM.
As to `COc1ccc(C#N)cc1-c1ccnc(Nc2ccc(N3CCOCC3)cc2)c1`, the values for the IC50 in data set [2] and in data set [1] were 26 µM and 0.011 µM, respectively. In [3], the Ratio IC50 was 2400.
In [16], `O=C1[C@H](Cc2ccc(O)cc2)N2C(=O)CCN(C(=O)NCc3ccccc3)[C@H]2CN1Cc1cccc2ccccc12` gave an IC50 of 1.3 µM.
In the case of `COc1ccc(Cl)cc1-c1ccnc(Nc2ccc(CCN3CCOCC3)cc2)c1`, the IC50 in the data set on DLD-1 came to 1.1 µM; in [1] it was 0.02 µM; in the data set on HCT-116, 1.7 µM; with HEK293, 0.059 µM; with HeLa, 3.7 µM.
`COc1ccc(Cl)cc1-c1ccnc(Nc2ccc(N3CCN(C)CC3)c(OC)c2)c1`: the IC50 in data set [2] was 7.9 µM; in [1], 0.004 µM. Besides, the Ratio IC50 in data set [3] was 2000.
Turning to `COc1ccc(C(F)(F)F)cc1-c1ccnc(Nc2ccc(N3CCOCC3)c(OC)c2)c1`, the IC50 in data set [1] worked out at 0.275 µM.
With `COc1ccc(C#N)cc1-c1ccnc(Nc2ccc(N3CCOCC3)c(OC)c2)c1`, the IC50 in the data set with DLD-1 stood at 5.8 µM; in the data set on HCT-116 it was 2.3 µM; in the data set on HEK293, 0.105 µM; in the data set with HeLa it was 6.8 µM.
In the case of `COc1ccc(C#N)cc1-c1ccnc(Nc2ccc(N3CCN(C)CC3)cc2)c1`, the IC50 is above 30 µM in data set [2] and 0.005 µM in data set [1]. Besides, in data set [3], the Ratio IC50 is above 6000.
For `COc1cc(Nc2cc(-c3cccc(C#N)c3)ccn2)ccc1N1CCOCC1`, the IC50 in data set [1] stood at 0.055 µM; in [4], 7.7 µM.

Source of the values: ChEMBL document CHEMBL2311352, “Discovery of 4-phenyl-2-phenylaminopyridine based TNIK inhibitors” (Bioorg Med Chem Lett, 2013).
